Here are results for four compounds from patent publication US20060035847A1, “Glucopyranosyloxyprazole derivatives and use thereof in medicines” (KISSEI PHARMACEUTICAL CO., LTD., priority 2000, published 2006).

Data set [1] deals with ICR mice. Put plainly: Acute toxicity test. In kind it is in vivo. The conditions noted are these: male ICR mice, oral 2000 mg/kg, observation until 24 hours, 5 animals in each group. On the procedure:
After 4 week old male ICR mice (Japan SLC. Inc., 20-25 g, 5 animals in each group) were fasted for 4 hours, the suspension (200 mg/mL) prepared by adding of 0.5% sodium carboxymethylcellulose solution to the test compound was orally administered at the dose of 10 mL/kg (2000 mg/kg). Observation was performed until 24 hours after the administration.

For data set [2], the system named is SD rats. Put plainly: Assay for the facilitatory effect on urinary glucose excretion. In kind it is in vivo. Particulars: glucose load 2 g/kg, 24 hours urine. On the procedure:
Assay for the Facilitatory Effect on Urinary Glucose Excretion
(§1) As experimental animal, overnight fasted SD rats (Japan SLC. Inc., male, 7 weeks of age, 202-221 g) were used. A Test compound was suspended in 0.5% sodium carboxymethylcellulose solution at the concentration of 2 mg/mL. When homogenous suspension was not obtained in this condition, the test compound was dissolved in ethanol at the concentration of 200 mg/mL of active form and then 2 mg/mL suspension was obtained by adding this solution to 99 times volumes of 0.5% sodium carboxymethylcellulose solution. A part of this suspension was diluted with 0.5% sodium carboxymethylcellulose solution and then 0.6 and 0.2 mg/mL suspensions were prepared. After the body weights of rats were measured, the test suspension was orally administered at the dose of 5 mL/kg (1, 3 and 10 mg/kg). For control, just only 0.5% sodium carboxymethylcellulose solution was orally administered at the dose of 5 mL/kg. Immediately after this oral administration, 400 g/L glucose solution was orally administered at the dose of 5 mL/kg (2 g/kg). The oral administration was performed with gastric tube for rat and 2.5 mL syringe. The head count in one group was 3. Collection of urine was performed in metabolic cage after the glucose administration was finished. The sampling time for collection of urine was 24 hours after the glucose administration. After collection of urine was finished, the urine volume was recorded and the urinary glucose concentration was measured. The glucose concentration was measured with a kit for laboratory test: Glucose B-Test WAKO (Wako Pure Chemical Industries, Ltd.). The amount of urinary glucose excretion in 24 hours per 200 g of body weight was calculated from urine volume, urinary glucose concentration and body weight.
as §1, with “bodyweights” for “body weights”

In data set [3] the test system is normal mice. The conditions noted are these: cited from earlier work.
Data set [4] addresses T1, human SGLT2 (Homo sapiens, UniProt P31639, I433V).
T1 construct: expressed in transfected cells; host or cells: COS-7 cells (RIKEN CELL BANK RCB0539), transient, electroporation
T1 sequence (P31639 1-672 I433V): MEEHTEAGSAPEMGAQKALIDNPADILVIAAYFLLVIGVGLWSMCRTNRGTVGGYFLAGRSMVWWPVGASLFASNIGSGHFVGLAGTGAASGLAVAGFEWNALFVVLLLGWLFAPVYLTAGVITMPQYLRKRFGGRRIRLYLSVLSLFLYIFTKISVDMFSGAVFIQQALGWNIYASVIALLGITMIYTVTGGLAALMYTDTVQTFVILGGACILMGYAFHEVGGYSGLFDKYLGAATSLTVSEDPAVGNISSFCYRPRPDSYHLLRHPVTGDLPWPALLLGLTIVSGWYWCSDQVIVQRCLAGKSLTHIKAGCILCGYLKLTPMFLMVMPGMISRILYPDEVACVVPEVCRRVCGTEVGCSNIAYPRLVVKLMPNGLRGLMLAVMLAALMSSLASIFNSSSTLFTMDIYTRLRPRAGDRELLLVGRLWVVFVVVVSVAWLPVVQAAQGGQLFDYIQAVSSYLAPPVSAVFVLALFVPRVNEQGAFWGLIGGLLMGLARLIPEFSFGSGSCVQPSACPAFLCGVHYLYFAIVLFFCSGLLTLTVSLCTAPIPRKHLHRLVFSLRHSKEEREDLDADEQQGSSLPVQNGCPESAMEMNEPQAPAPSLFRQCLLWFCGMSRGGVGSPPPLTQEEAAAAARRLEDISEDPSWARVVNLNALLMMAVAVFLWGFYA
Put plainly: Assay for inhibitory effect on human SGLT2 activity (methyl-α-D-glucopyranoside uptake in COS-7 cells transiently expressing human SGLT2). In kind it is cell-based. The procedure: Assay for Inhibitory Effect on Human SGLT2 Activity
1) Construction of the Plasmid Vector Expressing Human SGLT2
Preparation of the cDNA library for PCR amplification was performed by reverse transcription of a total RNA deprived from human kidney (Ori gene) with oligo dT as the primer, using SUPERSCRIPT Preamplification System (Gibco-BRL: LIFE TECHNOLOGIES). The DNA fragment coding for human SGLT2 was amplified by the PCR reaction, in which the human kidney cDNA library described above was used as the template and the following oligo nucleotides 0702F and 0712R, presented as sequence number 1 and 2 respectively, were used as the primers. The amplified DNA fragment was ligated into pCR-Blunt (Invitrogen), a vector for cloning, according to standard method of the kit. The Escherichia coli HB101 was transformed according to usual method and then selection of the transformants was performed on the LB agar medium containing 50 μg/mL of kanamycin. After plasmid DNA was extracted and purified from the one of the transformants, amplifying of the DNA fragment coding for human SGLT2 was performed by the PCR reaction, in which the following oligo nucleotides 0714F and 0715R, presented as sequence number 3 and 4 respectively, were used as the primers. The amplified DNA fragment was digested with restriction enzymes, Xho I and Hind III, and then purified with Wizard Purification System (Promega). This purified DNA fragment was inserted at into the corresponding restriction sites of pcDNA3.1 (−) Myc/His—B (Invitrogen), a vector for expressing of fusion protein. The Escherichia coli HB101 was transformed according to usual method and then selection of the transformant was performed on the LB agar medium containing 100 μg/mL of ampicillin. After plasmid DNA was extracted and purified from this transformant, the base sequence of the DNA fragment inserted at the multi-cloning sites of the vector pcDNA3.1 (−) Myc/His—B was analyzed. […] Sequentially, a clone in which valine is substituted for isoleucine-433 was obtained. This plasmid vector expressing human SGLT2 in which the peptide presented as sequence number 5 is fused to the carboxyl terminal alanine residue was designated KL29.
2) Preparation of the Cells Expressing Transiently Human SGLT2
KL29, the plasmid coding human SGLT2, was transfected into COS-7 cells (RIKEN CELL BANK RCB0539) by electroporation. Electroporation was performed with GENE PULSER II (Bio-Rad Laboratories) under the condition: 0.290 kV, 975 μF, 2×10^6 cells of COS-7 cell and 20 μg of KL29 in 500 μL of OPTI-MEM I medium (Gibco-BRL: LIFE TECHNOLOGIES) in the 0.4 cm type cuvette. After the gene transfer, the cells were harvested by centrifugation and resuspended with OPTI-MEM I medium (1 mL/cuvette). To each well in 96-wells plate, 125 μL of this cell suspension was added. After overnight culture at 37° C. under 5% CO2, 125 μL of DMEM medium which is containing 10% of fetal bovine serum (Sanko Jyunyaku), […] sodium penicillin G (Gibco-BRL: LIFE TECHNOLOGIES), 100 μg/mL streptomycin sulfate (Gibco-BRL: LIFE TECHNOLOGIES) was added to each well. These cells were cultured until the next day and then they were used for the measurement of the inhibitory activity against the uptake of methyl-α-D-glucopyranoside.
3) Measurement of the Inhibitory Activity Against the Uptake of methyl-α-D-glucopyranoside
After a test compounds was dissolved in dimethyl sulfoxide and diluted with the uptake buffer (a pH 7.4 buffer containing 140 mM sodium chloride, 2 mM potassium chloride, 1 mM calcium chloride, 1 mM magnesium chloride, 5 mM methyl-α-D-glucopyranoside, 10 mM 2-[4-(2-hydroxyethyl)-1-piperazinyl]ethane sulfonic acid and 5 mM tris(hydroxymethyl)aminomethane), each diluent was used as test sample for measurement of the inhibitory activity. […]

pIC50: −log10 of the molar value. Where only a bound is given, the exact number is not on record here.

Consider `COC(=O)OC[C@H]1O[C@@H](Oc2n[nH]c(C)c2Cc2ccc(OC(C)C)cc2)[C@H](O)[C@@H](O)[C@@H]1O` [Example 48, 4-[(4-Isopropoxyphenyl)methyl]-3-(6-O-methoxycarbonyl-β-D-glucopyranosyloxy)-5-methyl-1H-pyrazole], for which the Death number in data set [1] is on record as 0/5.

For `CCOC(=O)OC[C@H]1O[C@@H](Oc2nn(C(C)C)c(C)c2Cc2ccc(OC(C)C)cc2)[C@H](O)[C@@H](O)[C@@H]1O` [Example 1, 3-(6-O-Ethoxycarbonyl-β-D-glucopyranosyloxy)-4-[(4-isopropoxyphenyl)methyl]-1-isopropyl-5-methylpyrazole], the “Amount of Urinary Glucose Excretion” value in data set [2] (oral dose 1 mg/kg) is 1.6 mg/24 hours · 200 g body weight; in data set [2] (oral dose 3 mg/kg) it was 28.3 mg/24 hours · 200 g body weight; in data set [2] (oral dose 10 mg/kg), 127.5 mg/24 hours · 200 g body weight.

The pIC50 is the negative decadic logarithm of the IC50, by convention in mol/L. Lower therefore signals a large IC50. As for `CSc1ccc(Cc2c(C(F)(F)F)[nH][nH]c2=O)cc1` [WAY-123783, reference compound], the “amount of excreted glucose” value in data set [3] is on record as “increased”. The “inhibitory activity in human SGLT2 (in words)” value in data set [4] is listed as “extremely weak inhibitory activity”. In addition, the pIC50 in data set [4] (inhibition of methyl-α-D-glucopyranoside uptake, COS-7 cells expressing human SGLT2, 37° C., 2 hours) is under 4.00.

`COC(=O)OC[C@H]1O[C@@H](Oc2nn(C(C)C)c(C)c2Cc2ccc(OC(C)C)cc2)[C@H](O)[C@@H](O)[C@@H]1O` [Example 15, 4-[(4-Isopropoxyphenyl)methyl]-1-isopropyl-3-(6-O-methoxycarbonyl-β-D-glucopyranosyloxy)-5-methylpyrazole]: the results for the “Amount of Urinary Glucose Excretion” value in data set [2] (oral dose 1 mg/kg), in data set [2] (oral dose 3 mg/kg) and in data set [2] (oral dose 10 mg/kg) were 1.7 mg/24 hours · 200 g body weight, 36.8 mg/24 hours · 200 g body weight and 167.3 mg/24 hours · 200 g body weight, respectively.
